Here are results for 23 molecules from US20240409556A1, “BENZOPIPERAZINE AND RELATED ANALOGS FOR INHIBITING YAP/TAZ-TEAD” (Springworks Therapeutics, Inc., priority 2023, published 2024).

Common to all, as to format: cell-based
Experiment [1] concerns YAP/TAZ-TEAD transcription. Briefly: Reporter gene assay for measuring the inhibition of YAP/TAZ-TEAD transcription (TEAD-responsive element luciferase reporter in Hek293T cells). As to conditions: 24 hours incubation. In outline:
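HEK293T cells transiently transfected with a TEAD-responsive luciferase reporter were exposed to compounds for 24 h at 37° C/5% CO2, then luminescence was read. Percent inhibition normalised to vehicle (0%) and positive-control inhibitor (100%); IC50 derived.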
A general note: In a reporter assay the amount or activity of a reporter protein is the signal.

In experiment [2] the test system is NCI-H226 mesothelioma cell line. Briefly: Mesothelioma cell line proliferation assay, NCI-H226 (ATPlite). As to conditions: NCI-H226 cells, 6 days with compound, cell viability by ATPlite. The procedure:
(§1) Example 57: Activity of Compounds of the Disclosure in Mesothelioma Cell Line Proliferation Assays
(§2) Mesothelioma cell lines, NCI-H226 and NCI-H2052 (both sourced from the ATCC cell culture collection) were plated in 96-well plates (Corning® 96 Well White Polystyrene Microplate clear flat bottom, white polystyrene (TC-Treated)), at 1500 cells/well in full medium (RPMI 1640 ATCC modification with L-glutamine, HEPES, Phenol Red, Sodium Pyruvate, High glucose, Low sodium bicarbonate and 10% fetal bovine serum). Cells were incubated overnight at 37° C. in an incubator with 5% CO2. Then compounds, dissolved in DMSO, were added in dose-response. Cells were incubated with compound dilutions for another 6 days at 37° C. in an incubator with 5% CO2. Cell viability was quantitated using the ATPlite kit (Perkin-Elmer) and the luminescence was read-out using an Envision instrument (Perkin-Elmer). The amount of relative light units produced using the ATPlite kit was used to calculate percent of inhibition.
(§3) The activities of some example compounds are depicted in Table 4. The activity ranges A, B and C refer to EC50 values in the mesothelioma cell line proliferation assay as described as follows: “A”: EC50<1 μM; “B”: 1 μM≤EC50≤10 μM and “C”: EC50>10 μM; NT: not tested.
For orientation: Cellular ATP, detected with luciferase, serves as a proxy for viable cell number.

The subject of experiment [3] is NCI-H2052 mesothelioma cell line. As to the kind of experiment: Mesothelioma cell line proliferation assay, NCI-H2052 (ATPlite). As to conditions: NCI-H2052 cells, 6 days with compound, cell viability by ATPlite. The procedure:
as §1, §2, §3

Bounds are passed on as bounds.

`C=CC(=O)NC[C@@H]1CN(c2ccc(C(F)(F)F)cc2)c2cccnc2N1` [38-En2, (R)-N-((1-(4-(trifluoromethyl)phenyl)-1,2,3,4-tetrahydropyrido[2,3-b]pyrazin-3-yl)methyl)acrylamide]: in experiment [1] (Homo sapiens, HEK-293T, 24 h), the IC50 (usually the midpoint of a concentration-inhibition curve) is below 1000 nM. Further, the EC50 (in general, the concentration that produces a half-maximal response) in experiment [2] (Homo sapiens, 144 h) is below 1000 nM; in experiment [3] (Homo sapiens, 144 h), below 1000 nM.

In experiment [1], `CC(=O)N1CCN2c3ncccc3N(c3ccc(C(F)(F)F)cn3)CC2C1` (stereo not drawn) [53-En1, 1-(5-(5-(trifluoromethyl)pyridin-2-yl)-5,6,6a,7,9,10-hexahydro-8H-pyrazino[1,2-a]pyrido[3,2-e]pyrazin-8-yl)ethan-1-one] had an IC50 below 1000 nM. Besides, the EC50 in experiment [2] (Homo sapiens, 144 h) was below 1000 nM; in experiment [3] (Homo sapiens, 144 h), below 1000 nM.

In turn, `Cc1ccc2c(n1)N1CCC(C(=O)O)CC1CN2c1ccc(C(F)(F)F)cc1` [101-D2, (6aS,8S)— or (6aR,8S)— or (6aR,8R)— or (6aS,8R)-2-methyl-5-(4-(trifluoromethyl)phenyl)-6,6a,7,8,9,10-hexahydro-5H-dipyrido[1,2-a:3′,2′-e]pyrazine-8-carboxylic acid] registered an IC50 in experiment [1] below 1000 nM. For the same molecule, the EC50 in experiment [2] (Homo sapiens, 144 h) is below 1000 nM; in experiment [3] (Homo sapiens, 144 h) it was below 1000 nM.

`Cc1ccc2c(n1)N1CCC(C(=O)O)CC1CN2c1ccc(C(F)(F)F)cc1` [101-D4, (6aS,8S)— or (6aR,8S)— or (6aR,8R)— or (6aS,8R)-2-methyl-5-(4-(trifluoromethyl)phenyl)-6,6a,7,8,9,10-hexahydro-5H-dipyrido[1,2-a:3′,2′-e]pyrazine-8-carboxylic acid] had an IC50 in experiment [1] below 1000 nM. Moreover, the EC50 in experiment [2] and in experiment [3] was below 1000 nM in each case.

In the case of `O=C(NO)C1CCN2c3ccccc3N(c3ccc(C(F)(F)F)cc3)CC2C1` [116B-En2, (6aS,8S)- or (6aR,8S)- or (6aR,8R)- or (6aS,8R)-N-hydroxy-5-(4-(trifluoromethyl)phenyl)-6,6a,7,8,9,10-hexahydro-5H-pyrido[1,2-a]quinoxaline-8-carboxamide], in experiment [1], the IC50 was below 1000 nM. Moreover, the EC50 in experiment [2] (Homo sapiens, 144 h) is below 1000 nM; in experiment [3] (Homo sapiens, 144 h), below 1000 nM.

On to `NC(=O)C1CCN2c3ccccc3N(c3ccc(C(F)(F)F)cc3)CC2C1` (stereo not drawn) [117B-En2, (cis)- or (trans)-5-(4-(trifluoromethyl)phenyl)-6,6a,7,8,9,10-hexahydro-5H-pyrido[1,2-a]quinoxaline-8-carboxamide], for which, in experiment [1], the IC50 is below 1000 nM. Moreover, the EC50 was below 1000 nM in experiment [2] (Homo sapiens, 144 h) and below 1000 nM in experiment [3] (Homo sapiens, 144 h).

`O=C(O)C1(F)CCN2c3ccccc3N(c3ccc(C(F)(F)F)cc3)CC2C1` [123-D1, (6aS,8S)- or (6aR,8S)- or (6aR,8R)- or (6aS,8R)-8-fluoro-5-(4-(trifluoromethyl)phenyl)-6,6a,7,8,9,10-hexahydro-5H-pyrido[1,2-a]quinoxaline-8-carboxylic acid] had an IC50 in experiment [1] (Homo sapiens, HEK-293T, 24 h) below 1000 nM. The EC50 was below 1000 nM in experiment [2] (Homo sapiens, 144 h) and below 1000 nM in experiment [3] (Homo sapiens, 144 h).

In experiment [1] (Homo sapiens, HEK-293T, 24 h), `C=CC(=O)NCC1CN(c2ccc(C(F)(F)F)cc2)c2ccccc2N1CC#N` (stereo not drawn) [compound 3, N-((1-(cyanomethyl)-4-(4-(trifluoromethyl)phenyl)-1,2,3,4-tetrahydroquinoxalin-2-yl)methyl)acrylamide] yielded an IC50 below 1000 nM. In addition, the EC50 in experiment [2] (Homo sapiens, 144 h) is below 1000 nM; in experiment [3] (Homo sapiens, 144 h), below 1000 nM.

Regarding `C=CC(=O)NCC1CN(c2ccc(C(F)(F)F)cc2)c2ccccc2N1CCC(N)=O` (stereo not drawn) [compound 13, N-((1-(3-amino-3-oxopropyl)-4-(4-(trifluoromethyl)phenyl)-1,2,3,4-tetrahydroquinoxalin-2-yl)methyl)acrylamide], the IC50 in experiment [1] (Homo sapiens, HEK-293T, 24 h) was below 1000 nM. In addition, the EC50 in experiment [2] (Homo sapiens, 144 h) is below 1000 nM; in experiment [3] (Homo sapiens, 144 h) it was below 1000 nM.

On to `CC(=O)N1CCN2c3ccccc3N(c3ccc(C(F)(F)F)cc3)CC2C1` (stereo not drawn) [compound 15, 1-(6-(4-(trifluoromethyl)phenyl)-1,2,4,4a,5,6-hexahydro-3H-pyrazino[1,2-a]quinoxalin-3-yl)ethan-1-one], for which, in experiment [1] (Homo sapiens, HEK-293T, 24 h), the IC50 is below 1000 nM. Moreover, the EC50 was below 1000 nM in experiment [2] (Homo sapiens, 144 h) and below 1000 nM in experiment [3] (Homo sapiens, 144 h).

With `C=CC(=O)NCC1CN(c2ccc(C(F)(F)F)cc2)c2ccccc2N1C` (stereo not drawn) [compound 17, N-((1-methyl-4-(4-(trifluoromethyl)phenyl)-1,2,3,4-tetrahydroquinoxalin-2-yl)methyl)acrylamide], the IC50 in experiment [1] (Homo sapiens, HEK-293T, 24 h) is below 1000 nM. The EC50 in experiment [2] (Homo sapiens, 144 h) is below 1000 nM; in experiment [3] (Homo sapiens, 144 h), below 1000 nM.

`C=CC(=O)NCC1CN(c2ccc(C(F)(F)F)cc2)c2ccccc2N1` (stereo not drawn) [compound 22, N-((4-(4-(trifluoromethyl)phenyl)-1,2,3,4-tetrahydroquinoxalin-2-yl)methyl)acrylamide] came in with an IC50 in experiment [1] (Homo sapiens, HEK-293T, 24 h) below 1000 nM. The EC50 was below 1000 nM in experiment [2] (Homo sapiens, 144 h) and below 1000 nM in experiment [3] (Homo sapiens, 144 h).

For the molecule `CNS(=O)(=O)N1CCN2c3ccccc3N(c3ccc(C(F)(F)F)cc3)CC2C1` (stereo not drawn) [compound 32, N-methyl-6-(4-(trifluoromethyl)phenyl)-1,2,4,4a,5,6-hexahydro-3H-pyrazino[1,2-a]quinoxaline-3-sulfonamide], in experiment [1] (Homo sapiens, HEK-293T, 24 h), the IC50 was below 1000 nM. Moreover, the EC50 is below 1000 nM in experiment [2] (Homo sapiens, 144 h) and below 1000 nM in experiment [3] (Homo sapiens, 144 h).

`CC(=O)NCC1CN(c2ccc(C(F)(F)F)cc2)c2ccccc2N1` (stereo not drawn) [compound 34, N-((4-(4-(trifluoromethyl)phenyl)-1,2,3,4-tetrahydroquinoxalin-2-yl)methyl)acetamide]: the IC50 in experiment [1] was below 1000 nM. For the same molecule, the EC50 in experiment [2] (Homo sapiens, 144 h) was below 1000 nM; in experiment [3] (Homo sapiens, 144 h) it was below 1000 nM.

Consider `C=CC(=O)NCC1CN(c2ccc(C(F)(F)F)cc2)c2ccccc2O1` (stereo not drawn) [compound 35, N-((4-(4-(trifluoromethyl)phenyl)-3,4-dihydro-2H-benzo[b][1,4]oxazin-2-yl)methyl)acrylamide], for which the IC50 in experiment [1] (Homo sapiens, HEK-293T, 24 h) was below 1000 nM. Further, the EC50 in experiment [2] (Homo sapiens, 144 h) was below 1000 nM; in experiment [3] (Homo sapiens, 144 h), below 1000 nM.

In experiment [1] (Homo sapiens, HEK-293T, 24 h), `CC(=O)NCC1CN(c2ccc(C(F)(F)F)cc2)c2ccccc2O1` (stereo not drawn) [compound 36, N-((4-(4-(trifluoromethyl)phenyl)-3,4-dihydro-2H-benzo[b][1,4]oxazin-2-yl)methyl)acetamide] displayed a half-inhibitory concentration (IC50) below 1000 nM. Moreover, the EC50 in experiment [2] (Homo sapiens, 144 h) was below 1000 nM; in experiment [3] (Homo sapiens, 144 h) it was below 1000 nM.

`C=CC(=O)N1CCN2C(=O)CN(c3ccc(C(F)(F)F)cc3)CC2C1` (stereo not drawn) [compound 37, 8-acryloyl-2-(4-(trifluoromethyl)phenyl)octahydro-4H-pyrazino[1,2-a]pyrazin-4-one] returned an IC50 in experiment [1] (Homo sapiens, HEK-293T, 24 h) below 1000 nM. Further, the EC50 was below 1000 nM in experiment [2] (Homo sapiens, 144 h) and below 1000 nM in experiment [3] (Homo sapiens, 144 h).

`FC(F)(F)c1ccc(N2CCN(Cc3cnc[nH]3)c3ccccc32)cc1` [compound 51, 1-((1H-imidazol-5-yl)methyl)-4-(4-(trifluoromethyl)phenyl)-1,2,3,4-tetrahydroquinoxaline]: in experiment [1] (Homo sapiens, HEK-293T, 24 h), the IC50 is below 1000 nM. For the same molecule, the EC50 was below 1000 nM in experiment [2] (Homo sapiens, 144 h) and below 1000 nM in experiment [3] (Homo sapiens, 144 h).

`FC(F)(F)c1ccc(N2CCN(Cc3cn[nH]c3)c3ccccc32)cc1` [compound 63, 1-((1H-pyrazol-4-yl)methyl)-4-(4-(trifluoromethyl)phenyl)-1,2,3,4-tetrahydroquinoxaline]: the IC50 in experiment [1] (Homo sapiens, HEK-293T, 24 h) was below 1000 nM. In addition, the EC50 in experiment [2] (Homo sapiens, 144 h) was below 1000 nM; in experiment [3] (Homo sapiens, 144 h) it was below 1000 nM.

On to `CS(=O)(=O)N[C@@H]1C[C@@H]2CN(c3ccc(C(F)(F)F)cc3)c3cccnc3N2C1` [compound 85, N-((6aR,8R)-5-(4-(trifluoromethyl)phenyl)-5,6,6a,7,8,9-hexahydropyrido[3,2-e]pyrrolo[1,2-a]pyrazin-8-yl)methanesulfonamide], for which the concentration for half-maximal inhibition (IC50) in experiment [1] (Homo sapiens, HEK-293T, 24 h) was below 1000 nM. In addition, the EC50 in experiment [2] (Homo sapiens, 144 h) is 1000 to 10000 nM; in experiment [3] (Homo sapiens, 144 h) it was above 10000 nM.

`CNS(=O)(=O)N[C@@H]1C[C@@H]2CN(c3ccc(C(F)(F)F)cc3)c3cccnc3N2C1` [compound 86, N-((6aR,8R)-5-(4-(trifluoromethyl)phenyl)-5,6,6a,7,8,9-hexahydropyrido[3,2-e]pyrrolo[1,2-a]pyrazin-8-yl), N′-methylsulfuric diamide] gave a 50% inhibitory concentration (IC50) in experiment [1] (Homo sapiens, HEK-293T, 24 h) below 1000 nM. Further, the EC50 was 1000 to 10000 nM in experiment [2] (Homo sapiens, 144 h) and above 10000 nM in experiment [3] (Homo sapiens, 144 h).

Molecule `O=C(O)[C@@H]1C[C@@H]2CN(c3ccc(C(F)(F)F)cc3)c3cccnc3N2C1` [compound 102, (6aR,8R)-5-(4-(trifluoromethyl)phenyl)-5,6,6a,7,8,9-hexahydropyrido[3,2-e]pyrrolo[1,2-a]pyrazine-8-carboxylic acid] displayed an IC50 in experiment [1] (Homo sapiens, HEK-293T, 24 h) below 1000 nM. Besides, the EC50 in experiment [2] (Homo sapiens, 144 h) was below 1000 nM; in experiment [3] (Homo sapiens, 144 h), below 1000 nM.

For `CC(=O)N[C@@H]1C[C@@H]2CN(c3ccc(C(F)(F)F)cc3)c3ccc(C)nc3N2C1` [compound 107, N-((6aR,8R)-2-methyl-5-(4-(trifluoromethyl)phenyl)-5,6,6a,7,8,9-hexahydropyrido[3,2-e]pyrrolo[1,2-a]pyrazin-8-yl) acetamide], the IC50 in experiment [1] (Homo sapiens, HEK-293T, 24 h) is below 1000 nM. In addition, the EC50 is below 1000 nM in experiment [2] (Homo sapiens, 144 h) and below 1000 nM in experiment [3] (Homo sapiens, 144 h).
